{
  "source": "patent US9102613B2",
  "about": "“Method for producing sorbic anhydride and also use thereof as a preservative in foods” (LANXESS DEUTSCHLAND GMBH, priority 2010, dated 2015)",
  "assay": "preservative action in foods (e.g. fruit drinks)",
  "data": [
    {"molecule": "C/C=C/C=C/C(=O)OC(=O)/C=C/C=C/C", "note": "[all-E-sorbic anhydride]", "values": [
      {"measurement": "preservation action relative to sorbic acid or sorbate", "setting": "compared with sorbic acid or sorbate, preservative for foods", "result": "approximately five times higher"}
    ]},
    {"molecule": "C/C=C/C=C/C(=O)OC(=O)/C=C/C=C/C", "note": "[sorbic anhydride]", "values": [
      {"measurement": "preservative action relative to potassium sorbate", "setting": "compared with e.g. potassium sorbate, preservation of foods", "result": "about 5 times"}
    ]}
  ]
}
